We go through 5 compounds from BindingDB's records for doi:10.7270/Q2QN656Q (The Scripps Research Institute Molecular Screening Center, 2010).

Where “and” joins values, the source holds several entries; their conditions need not be identical. Equal entries are not always repeated.

The target of this test is Serine/threonine-protein phosphatase PP1-alpha catalytic subunit (Homo sapiens, UniProt P62136). Kind of test: PP1 phosphatase inhibitors, dose response, biochemical, fluorescence (AID 2403).
Serine/threonine-protein phosphatase PP1-alpha catalytic subunit, sequence (P62136 whole entry): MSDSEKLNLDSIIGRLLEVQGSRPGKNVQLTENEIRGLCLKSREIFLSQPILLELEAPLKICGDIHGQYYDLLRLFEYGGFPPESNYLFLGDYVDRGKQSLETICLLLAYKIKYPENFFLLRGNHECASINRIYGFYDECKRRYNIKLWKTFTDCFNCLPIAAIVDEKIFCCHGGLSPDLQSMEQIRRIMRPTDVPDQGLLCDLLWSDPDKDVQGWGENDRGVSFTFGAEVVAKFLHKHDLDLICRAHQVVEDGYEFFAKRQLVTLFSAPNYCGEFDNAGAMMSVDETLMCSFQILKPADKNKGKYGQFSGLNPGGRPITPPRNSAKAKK
In turn, `CC1(C)Cc2c(nn(-c3ccccc3)c(=N)c2C#N)CO1` had an IC50 of 55.8 µM. `O=C1OC(=O)[C@H]2[C@@H]1[C@@H]1CC[C@H]2O1` [(1R,2S,6R,7S)-4,10-Dioxa-tricyclo[5.2.1.0*2,6*]decane-3,5-dione]: the half-maximal inhibitory concentration (IC50) was 4.12 µM and 2.83 µM. As to `COc1ccc(CN=Nc2cc(C)nc(-n3nc(C)cc3C)n2)c(OC)c1` [MLS000589396], the IC50 stood at 6.68 µM.

Consider `CCOC(=O)c1sc(N2C(=O)C(=O)C(C(=O)c3ccco3)C2c2cccc([N+](=O)[O-])c2)nc1C` (stereo not given) [MLS001082998], for which inhibition was half-maximal at 11.8 µM (IC50). Regarding `COc1ccc(CN=Nc2cc(C)nc(-n3nc(C)cc3C)n2)cc1` [SMR000212741], the half-maximal inhibitory concentration (IC50) was found to be 5.81 µM.

As usually defined, the IC50 is the concentration needed to halve the response being measured. Read a low IC50 as greater potency.
